BindingDB's records for doi:10.1021/bi1011157 (Albert Einstein College of Medicine, 2010)

Biological target: T1, Pyrazinamidase/nicotinamidase PncA (Mycobacterium tuberculosis, UniProt Q50575)
T1 sequence (Q50575 whole entry): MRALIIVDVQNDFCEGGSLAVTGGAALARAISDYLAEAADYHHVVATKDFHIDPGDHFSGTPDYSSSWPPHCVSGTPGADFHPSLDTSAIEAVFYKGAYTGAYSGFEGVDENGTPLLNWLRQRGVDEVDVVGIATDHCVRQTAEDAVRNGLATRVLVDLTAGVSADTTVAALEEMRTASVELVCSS
Assay: Enzyme Assay
Procedure: Enzyme activity measurement by a coupled assay. initial velocities for the reaction of MtPncA were determined by monitoring the loss of absorbance at 340 nm associated with oxidation of NADH to NAD by L-glutamic dehydrogenase (GDH) to produce glutamate from alpha-ketoglutarate.

Compound	Ki [µM]
N#Cc1cnccn1 [PncA Inhibitor, 6]	61
O=C(c1cccnc1)C(F)(F)F [PncA Inhibitor, 3]	420
OCc1cccnc1 [PncA Inhibitor, 4]	63
O=Cc1cnccn1 [PncA Inhibitor, 1]	1.5
O=Cc1cccnc1 [PncA Inhibitor, 2]	0.3
N#Cc1cccnc1 [PncA Inhibitor, 5]	140
